Measurements: the supplement of paper PMC10132981, “Formate overflow drives toxic folate trapping in MTHFD1 inhibited cancer cells” (Nature Metabolism, 2023)
± gives the standard deviation of the averaged measurements.

Tested on: SW620 MTHFD2-/-
Assay: cell viability relative to vehicle (resazurin, 96 h); higher = more viable
Conditions: base medium: RPMI + dialysed FBS
Method: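 SW620 WT or MTHFD2-/- cells were treated for 96 h with a compound dilution series (log10 M) in RPMI with normal or dialysed FBS. Viability was read by resazurin and is given as % of vehicle.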

Cc1c(N2CCN(C)[C@@H](C)C2)ccc2c3c(c(=O)oc12)CN(C(=O)c1ccc(NS(C)(=O)=O)c(OC(F)(F)F)c1)CC3
Conditions | cell viability [%]
log10 compound concentration (M): -5, supplement / serum: 50μM Hypoxanthine | 95.4 ± 16
log10 compound concentration (M): -5, supplement / serum: 50μM Thymidine + 50μM Hypoxanthine | 108 ± 27
log10 compound concentration (M): -5, supplement / serum: 50μMThymidine | 13.3 ± 4.3
log10 compound concentration (M): -5, supplement / serum: Hypoxanthine | 85.7 ± 11
log10 compound concentration (M): -5, supplement / serum: Hypoxanthine+Sodium Formate | 51.9 ± 11
log10 compound concentration (M): -5, supplement / serum: No metabolite | 15.4 ± 8.4
log10 compound concentration (M): -5, supplement / serum: Sodium Formate | 87.3 ± 23
log10 compound concentration (M): -5, supplement / serum: Vehicle | 11.5 ± 3.2
log10 compound concentration (M): -5.47712, supplement / serum: 50μM Hypoxanthine | 77.9 ± 12
log10 compound concentration (M): -5.47712, supplement / serum: 50μM Thymidine + 50μM Hypoxanthine | 98 ± 15
log10 compound concentration (M): -5.47712, supplement / serum: 50μMThymidine | 14.1 ± 2.8
log10 compound concentration (M): -5.47712, supplement / serum: Hypoxanthine | 94.2 ± 12
log10 compound concentration (M): -5.47712, supplement / serum: Hypoxanthine+Sodium Formate | 90.1 ± 16
log10 compound concentration (M): -5.47712, supplement / serum: No metabolite | 14.8 ± 3.6
log10 compound concentration (M): -5.47712, supplement / serum: Sodium Formate | 95.7 ± 17
log10 compound concentration (M): -5.47712, supplement / serum: Vehicle | 13.5 ± 1.9
log10 compound concentration (M): -5.95424, supplement / serum: 50μM Hypoxanthine | 99.7 ± 30
log10 compound concentration (M): -5.95424, supplement / serum: 50μM Thymidine + 50μM Hypoxanthine | 111 ± 24
log10 compound concentration (M): -5.95424, supplement / serum: 50μMThymidine | 20.9 ± 2.7
log10 compound concentration (M): -5.95424, supplement / serum: Hypoxanthine | 101 ± 8.7
log10 compound concentration (M): -5.95424, supplement / serum: Hypoxanthine+Sodium Formate | 99 ± 7.3
log10 compound concentration (M): -5.95424, supplement / serum: No metabolite | 20.5 ± 6
log10 compound concentration (M): -5.95424, supplement / serum: Sodium Formate | 97.1 ± 5.7
log10 compound concentration (M): -5.95424, supplement / serum: Vehicle | 20.3 ± 1.7
log10 compound concentration (M): -6.43136, supplement / serum: 50μM Hypoxanthine | 109 ± 6
log10 compound concentration (M): -6.43136, supplement / serum: 50μM Thymidine + 50μM Hypoxanthine | 114 ± 1.9
log10 compound concentration (M): -6.43136, supplement / serum: 50μMThymidine | 41.5 ± 7.3
log10 compound concentration (M): -6.43136, supplement / serum: Hypoxanthine | 98 ± 9
log10 compound concentration (M): -6.43136, supplement / serum: Hypoxanthine+Sodium Formate | 104 ± 4.9
log10 compound concentration (M): -6.43136, supplement / serum: No metabolite | 43.5 ± 14
log10 compound concentration (M): -6.43136, supplement / serum: Sodium Formate | 98.9 ± 6.7
log10 compound concentration (M): -6.43136, supplement / serum: Vehicle | 44.8 ± 4.5
log10 compound concentration (M): -6.90849, supplement / serum: 50μM Hypoxanthine | 99.4 ± 32
log10 compound concentration (M): -6.90849, supplement / serum: 50μM Thymidine + 50μM Hypoxanthine | 101 ± 31
log10 compound concentration (M): -6.90849, supplement / serum: 50μMThymidine | 59.6 ± 11
log10 compound concentration (M): -6.90849, supplement / serum: Hypoxanthine | 99.5 ± 3.1
log10 compound concentration (M): -6.90849, supplement / serum: Hypoxanthine+Sodium Formate | 98.9 ± 4.2
log10 compound concentration (M): -6.90849, supplement / serum: No metabolite | 56.7 ± 2.8
log10 compound concentration (M): -6.90849, supplement / serum: Sodium Formate | 100 ± 5.1
log10 compound concentration (M): -6.90849, supplement / serum: Vehicle | 74.4 ± 7.1
log10 compound concentration (M): -7.38561, supplement / serum: 50μM Hypoxanthine | 67.2 ± 11
log10 compound concentration (M): -7.38561, supplement / serum: 50μM Thymidine + 50μM Hypoxanthine | 110 ± 7.3
log10 compound concentration (M): -7.38561, supplement / serum: 50μMThymidine | 61.2 ± 15
log10 compound concentration (M): -7.38561, supplement / serum: Hypoxanthine | 85.2 ± 7.3
log10 compound concentration (M): -7.38561, supplement / serum: Hypoxanthine+Sodium Formate | 83 ± 8.4
log10 compound concentration (M): -7.38561, supplement / serum: No metabolite | 50 ± 3.7
log10 compound concentration (M): -7.38561, supplement / serum: Sodium Formate | 76.9 ± 5.5
log10 compound concentration (M): -7.38561, supplement / serum: Vehicle | 56.4 ± 5
log10 compound concentration (M): -7.86273, supplement / serum: 50μM Hypoxanthine | 104 ± 5.7
log10 compound concentration (M): -7.86273, supplement / serum: 50μM Thymidine + 50μM Hypoxanthine | 105 ± 5.2
log10 compound concentration (M): -7.86273, supplement / serum: 50μMThymidine | 67.2 ± 0.81
log10 compound concentration (M): -7.86273, supplement / serum: Hypoxanthine | 88.9 ± 8.2
log10 compound concentration (M): -7.86273, supplement / serum: Hypoxanthine+Sodium Formate | 94.5 ± 7.3
log10 compound concentration (M): -7.86273, supplement / serum: No metabolite | 72.2 ± 5.5
log10 compound concentration (M): -7.86273, supplement / serum: Sodium Formate | 94.4 ± 6.8
log10 compound concentration (M): -7.86273, supplement / serum: Vehicle | 80.2 ± 7.6
log10 compound concentration (M): -8.33985, supplement / serum: 50μM Hypoxanthine | 104 ± 3.1
log10 compound concentration (M): -8.33985, supplement / serum: 50μM Thymidine + 50μM Hypoxanthine | 95 ± 9
log10 compound concentration (M): -8.33985, supplement / serum: 50μMThymidine | 77.3 ± 1.7
log10 compound concentration (M): -8.33985, supplement / serum: Hypoxanthine | 93.9 ± 12
log10 compound concentration (M): -8.33985, supplement / serum: Hypoxanthine+Sodium Formate | 101 ± 9.1
log10 compound concentration (M): -8.33985, supplement / serum: No metabolite | 90 ± 3.7
log10 compound concentration (M): -8.33985, supplement / serum: Sodium Formate | 92.2 ± 12
log10 compound concentration (M): -8.33985, supplement / serum: Vehicle | 92.8 ± 7.2
log10 compound concentration (M): -8.81697, supplement / serum: 50μM Hypoxanthine | 114 ± 8.4
log10 compound concentration (M): -8.81697, supplement / serum: 50μM Thymidine + 50μM Hypoxanthine | 113 ± 10
log10 compound concentration (M): -8.81697, supplement / serum: 50μMThymidine | 94 ± 18
log10 compound concentration (M): -8.81697, supplement / serum: Hypoxanthine | 94.5 ± 3.4
log10 compound concentration (M): -8.81697, supplement / serum: Hypoxanthine+Sodium Formate | 95.1 ± 4.2
log10 compound concentration (M): -8.81697, supplement / serum: No metabolite | 96.4 ± 18
log10 compound concentration (M): -8.81697, supplement / serum: Sodium Formate | 95.3 ± 5.8
log10 compound concentration (M): -8.81697, supplement / serum: Vehicle | 94.3 ± 2
log10 compound concentration (M): -9.29409, supplement / serum: 50μM Hypoxanthine | 96.5 ± 1.1
log10 compound concentration (M): -9.29409, supplement / serum: 50μM Thymidine + 50μM Hypoxanthine | 113 ± 10
log10 compound concentration (M): -9.29409, supplement / serum: 50μMThymidine | 95.6 ± 29
log10 compound concentration (M): -9.29409, supplement / serum: Hypoxanthine | 95.9 ± 4
log10 compound concentration (M): -9.29409, supplement / serum: Hypoxanthine+Sodium Formate | 94.7 ± 2.4
log10 compound concentration (M): -9.29409, supplement / serum: No metabolite | 104 ± 17
log10 compound concentration (M): -9.29409, supplement / serum: Sodium Formate | 98.8 ± 6.8
log10 compound concentration (M): -9.29409, supplement / serum: Vehicle | 97 ± 5.5
log10 compound concentration (M): -9.77121, supplement / serum: 50μM Hypoxanthine | 106 ± 7.2
log10 compound concentration (M): -9.77121, supplement / serum: 50μM Thymidine + 50μM Hypoxanthine | 124 ± 1.8
log10 compound concentration (M): -9.77121, supplement / serum: 50μMThymidine | 92.7 ± 1.6
log10 compound concentration (M): -9.77121, supplement / serum: Hypoxanthine | 95 ± 4.8
log10 compound concentration (M): -9.77121, supplement / serum: Hypoxanthine+Sodium Formate | 98.8 ± 3
log10 compound concentration (M): -9.77121, supplement / serum: No metabolite | 110 ± 13
log10 compound concentration (M): -9.77121, supplement / serum: Sodium Formate | 99.3 ± 3.4
log10 compound concentration (M): -9.77121, supplement / serum: Vehicle | 96.2 ± 6
